Experimental data: patent US8440464B2, “Method for evaluation or selection of adiponectin secretion regulator” (Kao Corporation, priority 2008, dated 2013)

Tested on: plasma adiponectin level
Assay: Plasma adiponectin level in REM sleep deprivation rat model (platform method), rat adiponectin ELISA
Assay type: in vivo
Details: SD rats, 30-hour REM sleep deprivation, oral 150 mg/kg thrice every 12 hours (300 mg/kg/day), vs. control group receiving distilled water, P<0.05 (Fisher's PLSD test)
Description: SD rats (male, 10 to 11 weeks old) were divided into groups, each containing rats with similar body weights. A cylindrical platform (diameter: 6.0 cm, height: 2.5 cm) on which a rat can take a rest was placed in a cage, and water was added to the cage so that the water level was adjusted to 1 cm below the top of the platform. Each rat was reared for one to four days in the cage (one rat/cage). Rats of a rest group were reared in cages each containing a common floorcloth (N=4 for each group). In a chlorogenic acid administration experiment, rats were reared in cages for 30-hour REM sleep deprivation. Rats of a chlorogenic acid (5-CQA, product of Sigma) administration group orally received chlorogenic acid thrice every 12 hours by means of a probe (dose: 150 mg/kg (300 mg/kg/day)). Rats of a control group received distilled water. Rats of a rest group were reared in cages each containing a common floorcloth, and received distilled water (N=6 for each group). […] The plasma adiponectin level was determined by means of a rat adiponectin ELISA kit (product of ADIPOGEN®). Specifically, plasma was 1,000-fold diluted with a dilution buffer contained in the kit, and then plasma adiponectin level was determined according to the kit protocol.

O=C(/C=C/c1ccc(O)c(O)c1)O[C@@H]1C[C@](O)(C(=O)O)C[C@@H](O)[C@H]1O [chlorogenic acid]
Effect on reduction in plasma adiponectin level caused by REM sleep deprivation: significantly suppressed a reduction in plasma adiponectin level
